# Where two headings read alike, the source gives them in different places.
# How the values were obtained:
# [1] = Bidirectional transport across LLC-PK1 MOCK monolayer (Transwell); conditions: pig; for Papp A→B at 2 h, 2 µM: LLC-PK1, pH 7.4, Papp A-B, LLC-PK1 MOCK, mean ± s, n = 3, BLQ = below 2 nM;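 as to all read-outs here: compound quantified by LC-MS/MS in donor and receiver wells, efflux ratio as B-A over A-B Papp, recovery relative to initial donor amount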
# [2] = test system: P-gp (human MDR1); experiment: Bidirectional transport across LLC-PK1-MDR1 monolayer stably expressing human MDR1 (P-gp) (Transwell); conditions: pig;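 also: 2 h incubation at 37 °C, receiver HBSS with 10 mM Hepes plus 1% BSA, LC-MS/MS of donor and receiver, recovery as receiver plus donor amount over initial donor amount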
# Description: (§1) The overexpression and functional activity of P-glycoprotein (P-gp) in the LLC-PK1-MDR1 cells were rigorously validated through multiple methods.
# (§2) Cells were passaged at 80−90% confluence (every 2−3 days) using trypsin-EDTA solution. […] The culture medium was replaced every other day, including 200 µL culture medium in the apical and 850 µL cell culture medium in the basolateral side. LLC-PK1 MOCK cells were used at passages of 3−30. LLC-PK1-MDR1 cells were cultured and passaged in the same manner as LLC-PK1 cells except at the density of 1 × 10^4 cells per well. LLC-PK1-MDR1 cells were used at passages of 3−25. For LLC-PK1 MOCK cells and LLC-PK1-MDR1 cells, the experiments were performed on the 4th and 7th day after seeding.
# (§3) Monitoring permeability of positive control drugs. […] Samples were collected from the donor well at the start of the incubation (50 µL) as C0, and from the donor and receiver wells at the end of the incubation (50 µL). All samples were stored at - 40 °C for LC-MS/MS analysis.
# (§4) Bidirectional transport experiments. […] The transwell experiments were conducted following above-mentioned procedure. […] When the recovery rate of the tested drug is below 80%, the possibility of intracellular accumulation should be considered. The polycarbonate (PC) membrane where cells are grown should be carefully peeled off from the cell culture medium and placed in 100 µL of HBSS buffer solution. […] The process was carried out on ice to prevent heat-induced degradation, applying a power in the range of 300 W for a total duration of 20 minutes. Thereafter, a quantitative analysis of the intracellular drug was conducted, and the drug recovery rate was recalculated based on this analysis.
# (§5) The apparent permeability coefficient (Papp, cm/s) was calculated for each transport direction, A-B and B-A, using the following equation: Papp=dQ/dt×1/A×C0 where dQ/dt is the permeation rate (µmol/s), A is the surface area of the insert (0.33 cm^2, Corning), and C0 is the initial donor concentration (µM).
# (§6) The efflux ratio (ER) is calculated as the ratio of Papp (B-A)/Papp (A-B). Recovery=TRcumrf+Cdf×VD/Cdi×VD×100% Where TRcumrf is the cumulative transported mass in the receiver chamber at the end of the incubation (nmol), Cdf is the concentration of the drug in the donor chamber at the end of the incubation (μM), VD is the volume of the donor chamber (mL), and Cdi is the initial concentration of the drug in the donor chamber (μM).
# (§7) The method of the bidirectional transport experiment was the same as before.
# [3] = in vivo; conditions: rat
# Text: In vivo unbound brain distribution data (Kp,uu,Brain) for 16 drugs and total brain distribution data (Kp,Brain) for 16 drugs was acquired from literature. […] For each tested compound, fifteen rats were randomly divided into five groups of three rats each. […] The time of execution of the rats by CO2 inhalation after administration was optimized according to the in vivo elimination rate to achieve five concentrations of different time points. After the rats were euthanized, cardiac puncture was performed immediately to remove as much whole blood as possible (~7 ml) from the systemic circulation (Quantitatively aliquot 0.2 ml of whole blood for the determination of drug concentration in plasma). Afterwards, the brain tissue was collected immediately and rinsed repeatedly with ice-cold saline 3 times. Then, the surface saline was blotted dry with clean filter paper to remove as much residual drug in the blood vessels as possible. Plasma samples were prepared by centrifugation of the blood samples at 2,500 g for 10 minutes at 4 °C. All brain samples were homogenized by adding 4-fold volume water. All samples were stored at -40 °C before LC-MS/MS analysis. […] The brain tissue partition coefficient (Kp, brain) and brain-to-plasma unbound drug partition ratio (Kp,uu, brain) are calculated according to the following formulas, respectively: Kp,brain=AUC(0−∞,brain)/AUC(0−∞,plasma)Kp,uu,brain=Kp,brain×(fu,tissue/fu,plasma)
# Free brain-to-plasma distribution coefficients (Kp,uu,brain) of 41 drugs. Brain distribution coefficients (Kp,uu,brain) were calculated for 41 drugs. […] Plasma and brain concentration-time profiles were generated, and AUC(0-t) values for both matrices were calculated using WinNolin 8.1. Kp,brain was derived as the ratio of brain-to-plasma AUC(0-t).
# Kp,uu,brain values were computed by normalizing Kp,brain to unbound fractions (fu,plasma and fu,brain).
# [4] = test system: P-gp (human MDR1); experiment: in vitro; conditions: pig, LLC-PK1, pH 7.4;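 also: 2 h incubation at 37 °C, receiver HBSS with 10 mM Hepes plus 1% BSA, LC-MS/MS of donor and receiver, recovery as receiver plus donor amount over initial donor amount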
# Description: as §1, §2, §3, §4, §5, §6, §7
# [5] = in vitro; conditions: pig, LLC-PK1 MOCK cell monolayer (Transwell), pH 7.4
# [6] = design: method as in Internal data; conditions: footnote a; ref Internal data; cited from earlier work
# [7] = footnote a; ref Internal data; cited from earlier work
# [8] = cited from earlier work
"Papp B→A at 2 h, 2 µM ([1]; LLC-PK1, pH 7.4) [×10⁻⁶ cm/s]","efflux ratio at 2 h, 2 µM ([1]; LLC-PK1, pH 7.4)","Papp A→B at 2 h, 2 µM [1] [×10⁻⁶ cm/s]","Papp A→B at 2 h, 2 µM ([2]; LLC-PK1, pH 7.4) [×10⁻⁶ cm/s]","Papp B→A at 2 h, 2 µM ([2]; LLC-PK1, pH 7.4) [×10⁻⁶ cm/s]","efflux ratio at 2 h, 2 µM ([2]; LLC-PK1, pH 7.4)",Kp uu [3],"recovery at 2 h, 2 µM [4] [%]","recovery at 2 h, 2 µM [5] [%]","Papp A→B at 2 h, 2 µM ([2]; LLC-PK1, pH 7.4, Papp A-B, LLC-PK1-MDR1, 2 µM, 2 h, mean ± s, n = 3) [×10⁻⁶ cm/s]",SMILES,Protein binding in brain tissue [6],"Kp, Brain [7]",Protein binding in plasma ([8]; ref Le Quellec et al. [1994]) [%],"Protein binding in plasma ([8]; footnote a, ref Internal data)"
20.6 ± 0.92,0.92,22.4 ± 0.51,20.8 ± 1.43,21.7 ± 1.08,1.02,0.575,93.1 ± 1.67,105 ± 2.95,–,COc1ccc2[nH]cc(CCNC(C)=O)c2c1 [Melatonin],30.0^a %,0.5^a,33.0,–
35.2 ± 2.56,–,30.8 ± 0.61,–,29.1 ± 3.62,–,2.21,–,–,30.2 ± 3.4,Cc1cccc([C@H](C)c2cnc[nH]2)c1C [Dexmedetomidine],86.7^a %,0.80^a,–,95.2^a %
